Laboratory results reported in ChEMBL document CHEMBL1201862, “PubChem BioAssay data set” (2004).
The source made the active and inactive calls.

Experiments:
[1] = A cytotoxicity screen of small molecule inhibitors of the PhoP region in Salmonella typhi identified in the primary screen. [Related pubchem assays: 1850, 1864, 1985 ]; assay type: functional
[2] = inhibitors of intracellular T. cruzi replication, confirmation, NIH3T3 host cells, beta-gal luminescence (AID 2044); assay type: functional, cell-based;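 also: intracellular parasites grown in NIH/3T3 mouse fibroblasts as host cells; luminescent beta-galactosidase reporter signal from transgenic T. cruzi replicating inside host cells; inhibitors lower the luminescence signal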
[3] = cytotoxicity toward NIH3T3 fibroblasts, dose response, counter-screen, cell-based, ATP luminescence, mouse fibroblasts (AID 2010); assay type: functional; settings: NIH3T3;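 also: cells exposed to compound for about 90 hours before reading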
Cytochrome P450 2C19 = Cytochrome P450 2C19 (Homo sapiens, UniProt P33261); assay: Cytochrome panel assay with activity outcomes. Panel member name: p450-cyp2c19 Compounds with AC50 equal or less than 10 uM are considered active; assay type: functional; settings: read-out: AC50
Cytochrome P450 2C19, sequence (P33261 whole entry): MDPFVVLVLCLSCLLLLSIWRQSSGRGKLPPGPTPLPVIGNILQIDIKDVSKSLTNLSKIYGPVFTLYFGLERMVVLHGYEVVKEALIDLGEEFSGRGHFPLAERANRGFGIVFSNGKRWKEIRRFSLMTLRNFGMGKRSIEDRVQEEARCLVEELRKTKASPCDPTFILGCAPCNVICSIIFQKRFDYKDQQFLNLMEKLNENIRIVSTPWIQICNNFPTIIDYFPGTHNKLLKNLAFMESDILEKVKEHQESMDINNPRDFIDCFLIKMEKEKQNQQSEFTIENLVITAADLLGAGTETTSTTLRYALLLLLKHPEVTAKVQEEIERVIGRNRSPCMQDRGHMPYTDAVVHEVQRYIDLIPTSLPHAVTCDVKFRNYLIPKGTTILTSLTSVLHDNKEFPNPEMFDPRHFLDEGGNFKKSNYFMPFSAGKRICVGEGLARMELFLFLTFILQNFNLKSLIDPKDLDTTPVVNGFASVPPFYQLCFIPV

[4] = control 3'UTR Renilla luciferase suppression, dose response, counter-screen for Shn3 inhibitor project, cell-based, Clone20-Shn3RL, cherry-picked (AID 624133); assay type: functional
[5] = target: T1, Corticotropin-releasing factor receptor 2/Corticotropin-releasing factor-binding protein (Homo sapiens, UniProt P24387+Q13324); assay: Dose Response confirmation of uHTS hits for small molecule antagonists of the CRF-binding protein and CRF-R2 receptor complex.; assay type: functional; settings: read-out: IC50_Mean
T1 sequence (Q13324 whole entry): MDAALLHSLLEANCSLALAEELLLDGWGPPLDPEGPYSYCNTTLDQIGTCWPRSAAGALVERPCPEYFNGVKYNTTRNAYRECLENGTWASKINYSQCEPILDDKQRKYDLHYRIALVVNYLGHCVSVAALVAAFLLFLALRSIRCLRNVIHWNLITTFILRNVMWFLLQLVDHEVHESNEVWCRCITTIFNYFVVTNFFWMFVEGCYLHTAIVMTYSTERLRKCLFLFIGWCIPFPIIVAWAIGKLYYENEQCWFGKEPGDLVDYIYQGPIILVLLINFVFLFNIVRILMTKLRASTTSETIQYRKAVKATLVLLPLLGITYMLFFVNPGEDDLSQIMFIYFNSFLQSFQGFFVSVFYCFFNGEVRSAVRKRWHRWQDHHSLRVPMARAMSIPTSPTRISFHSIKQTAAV
T1 sequence (P24387 whole entry): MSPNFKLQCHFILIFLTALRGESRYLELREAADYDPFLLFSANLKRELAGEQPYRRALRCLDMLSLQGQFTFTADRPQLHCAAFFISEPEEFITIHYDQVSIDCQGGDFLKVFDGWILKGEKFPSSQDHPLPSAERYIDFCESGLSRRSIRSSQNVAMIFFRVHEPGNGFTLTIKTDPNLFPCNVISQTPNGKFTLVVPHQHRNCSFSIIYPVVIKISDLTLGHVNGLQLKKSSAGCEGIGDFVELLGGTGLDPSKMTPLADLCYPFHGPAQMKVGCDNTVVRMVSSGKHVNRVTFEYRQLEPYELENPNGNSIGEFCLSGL

[6] = target: T1, Corticotropin-releasing factor receptor 2/Corticotropin-releasing factor-binding protein; assay: activators of CRF receptor 2 with binding protein – uHTS hits, confirmation (AID 602473); assay type: functional; settings: read-out: EC50_Mean
[7] = CRF-BP/CRF-R2 complex antagonists, dose response, cell-based, uHTS hits, 384-well (AID 651639); assay type: functional, Homo sapiens; settings: read-out: IC50_Mean
cells = assay type: functional, cell-based
[8] = target: T2, Carboxy-terminal domain RNA polymerase II polypeptide A small phosphatase 1 (Homo sapiens, UniProt Q9GZU7); assay: inhibitors of CTDSP1, concentration-response testing, biochemical assay, absorbance-based, actives from ultra-high-throughput screening (AID 540297); assay type: functional
T2 sequence (Q9GZU7 whole entry): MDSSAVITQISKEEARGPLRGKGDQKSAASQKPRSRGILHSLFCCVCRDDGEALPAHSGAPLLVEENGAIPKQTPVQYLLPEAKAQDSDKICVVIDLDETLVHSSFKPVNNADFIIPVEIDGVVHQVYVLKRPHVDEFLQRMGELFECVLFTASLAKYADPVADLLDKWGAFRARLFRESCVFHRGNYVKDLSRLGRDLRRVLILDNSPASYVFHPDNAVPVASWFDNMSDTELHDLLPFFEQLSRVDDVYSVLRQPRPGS

Fatty acid synthase [9] = target: T3, Fatty acid synthase (Homo sapiens, UniProt P49327); assay: FAS thioesterase domain inhibitors, dose response, biochemical, endpoint fluorescence intensity, uHTS hits (AID 624327); assay type: functional;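 also: fluorescence from hydrolysis of an O-methyl fluorescein acyl ester substrate by the enzyme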
T3 sequence (P49327 whole entry, the tested form may be a part): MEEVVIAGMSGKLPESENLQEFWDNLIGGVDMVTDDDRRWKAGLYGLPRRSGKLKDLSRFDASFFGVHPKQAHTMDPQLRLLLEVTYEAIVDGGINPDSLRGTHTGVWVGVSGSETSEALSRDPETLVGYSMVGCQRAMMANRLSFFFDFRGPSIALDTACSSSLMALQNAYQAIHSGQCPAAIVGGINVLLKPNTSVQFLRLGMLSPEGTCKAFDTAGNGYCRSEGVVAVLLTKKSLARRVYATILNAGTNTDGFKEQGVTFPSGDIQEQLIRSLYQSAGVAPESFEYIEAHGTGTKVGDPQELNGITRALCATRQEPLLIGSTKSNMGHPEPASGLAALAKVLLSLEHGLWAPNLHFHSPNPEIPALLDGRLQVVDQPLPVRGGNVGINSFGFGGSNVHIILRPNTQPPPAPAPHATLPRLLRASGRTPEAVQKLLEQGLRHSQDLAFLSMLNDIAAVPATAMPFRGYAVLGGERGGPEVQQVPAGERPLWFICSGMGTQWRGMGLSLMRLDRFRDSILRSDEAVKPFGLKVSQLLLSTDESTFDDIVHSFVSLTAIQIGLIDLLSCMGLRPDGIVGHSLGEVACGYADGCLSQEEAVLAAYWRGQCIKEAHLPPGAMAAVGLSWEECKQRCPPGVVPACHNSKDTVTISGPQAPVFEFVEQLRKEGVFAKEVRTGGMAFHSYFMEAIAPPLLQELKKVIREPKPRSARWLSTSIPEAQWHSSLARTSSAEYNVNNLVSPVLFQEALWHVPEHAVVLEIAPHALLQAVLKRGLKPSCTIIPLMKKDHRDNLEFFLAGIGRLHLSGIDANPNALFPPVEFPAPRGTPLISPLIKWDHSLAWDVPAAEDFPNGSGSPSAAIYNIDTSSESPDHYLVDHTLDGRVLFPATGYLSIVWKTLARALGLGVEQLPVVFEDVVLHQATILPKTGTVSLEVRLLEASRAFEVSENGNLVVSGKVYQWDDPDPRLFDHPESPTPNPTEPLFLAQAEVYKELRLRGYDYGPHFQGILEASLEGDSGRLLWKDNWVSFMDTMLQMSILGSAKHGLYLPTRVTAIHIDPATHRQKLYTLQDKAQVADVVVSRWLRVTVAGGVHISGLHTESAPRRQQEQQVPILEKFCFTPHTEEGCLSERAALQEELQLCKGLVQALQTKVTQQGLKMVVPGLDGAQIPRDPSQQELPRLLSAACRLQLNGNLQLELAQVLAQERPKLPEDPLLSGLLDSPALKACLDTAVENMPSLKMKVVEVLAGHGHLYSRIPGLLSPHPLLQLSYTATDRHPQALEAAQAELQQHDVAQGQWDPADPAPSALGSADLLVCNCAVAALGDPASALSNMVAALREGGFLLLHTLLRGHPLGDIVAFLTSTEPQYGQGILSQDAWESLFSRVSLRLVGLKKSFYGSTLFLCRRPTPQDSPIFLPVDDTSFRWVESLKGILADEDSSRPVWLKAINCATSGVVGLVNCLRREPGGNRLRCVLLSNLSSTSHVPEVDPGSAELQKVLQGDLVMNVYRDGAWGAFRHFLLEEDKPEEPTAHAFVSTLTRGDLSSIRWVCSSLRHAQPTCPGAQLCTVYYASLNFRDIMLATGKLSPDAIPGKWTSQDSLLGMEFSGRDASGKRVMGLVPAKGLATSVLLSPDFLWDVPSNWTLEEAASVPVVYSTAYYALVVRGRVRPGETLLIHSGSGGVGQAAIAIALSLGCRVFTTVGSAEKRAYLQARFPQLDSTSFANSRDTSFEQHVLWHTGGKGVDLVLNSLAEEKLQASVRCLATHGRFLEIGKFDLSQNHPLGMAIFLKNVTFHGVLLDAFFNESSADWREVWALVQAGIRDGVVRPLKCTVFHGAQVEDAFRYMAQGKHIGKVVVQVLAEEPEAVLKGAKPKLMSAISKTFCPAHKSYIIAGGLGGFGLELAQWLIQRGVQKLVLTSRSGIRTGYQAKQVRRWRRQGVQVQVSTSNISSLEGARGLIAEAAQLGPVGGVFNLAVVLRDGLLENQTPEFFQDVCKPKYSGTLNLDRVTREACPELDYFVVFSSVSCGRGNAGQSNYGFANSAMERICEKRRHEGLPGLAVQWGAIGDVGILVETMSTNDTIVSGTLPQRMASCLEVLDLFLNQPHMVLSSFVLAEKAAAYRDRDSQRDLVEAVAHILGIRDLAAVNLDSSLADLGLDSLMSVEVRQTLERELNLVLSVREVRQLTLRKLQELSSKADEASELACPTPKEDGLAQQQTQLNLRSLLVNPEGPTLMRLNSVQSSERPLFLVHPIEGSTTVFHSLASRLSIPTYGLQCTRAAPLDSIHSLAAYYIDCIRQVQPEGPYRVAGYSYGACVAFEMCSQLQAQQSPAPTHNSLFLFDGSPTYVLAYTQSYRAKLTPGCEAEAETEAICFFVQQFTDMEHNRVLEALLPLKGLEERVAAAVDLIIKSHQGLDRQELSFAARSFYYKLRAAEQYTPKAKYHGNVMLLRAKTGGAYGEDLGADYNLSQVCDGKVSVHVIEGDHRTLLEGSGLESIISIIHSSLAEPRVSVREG

Fatty acid synthase [10] = target: T3, Fatty acid synthase; assay: FAS thioesterase domain inhibitors, dose response, biochemical, kinetic fluorescence intensity (AID 624326); assay type: functional;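 also: rate of fluorescence rise from hydrolysis of a fluorogenic O-methyl fluorescein ester substrate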
[11] = target: T4, Mannose-6-phosphate isomerase (Homo sapiens, UniProt P34949); assay: human PMI inhibitors, high substrate, primary screen, biochemical, fluorescence intensity, high mannose 6-phosphate (AID 1220)
T4 sequence (P34949 whole entry): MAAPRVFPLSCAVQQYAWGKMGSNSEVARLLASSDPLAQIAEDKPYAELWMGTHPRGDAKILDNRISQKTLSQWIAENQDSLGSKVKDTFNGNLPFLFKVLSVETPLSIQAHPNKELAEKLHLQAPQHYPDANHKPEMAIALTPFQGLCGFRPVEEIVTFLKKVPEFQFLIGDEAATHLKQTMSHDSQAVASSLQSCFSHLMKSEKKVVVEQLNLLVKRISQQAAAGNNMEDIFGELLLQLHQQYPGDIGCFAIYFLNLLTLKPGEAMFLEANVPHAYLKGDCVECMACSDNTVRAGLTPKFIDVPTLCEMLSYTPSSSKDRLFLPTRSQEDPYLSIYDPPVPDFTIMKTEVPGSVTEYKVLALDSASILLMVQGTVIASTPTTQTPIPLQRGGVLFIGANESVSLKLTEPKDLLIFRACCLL

[12] = target: DNA dC->dU-editing enzyme APOBEC-3G (Homo sapiens, UniProt Q9HC16); assay: Dose Response confirmation of small molecule APOBEC3G DNA Deaminase Inhibitors via a fluorescence-based single-stranded DNA deaminase assay. [Related pubchem assays (depositor defined):AID493012, AID493028]; assay type: functional
DNA dC->dU-editing enzyme APOBEC-3G, sequence (Q9HC16 whole entry): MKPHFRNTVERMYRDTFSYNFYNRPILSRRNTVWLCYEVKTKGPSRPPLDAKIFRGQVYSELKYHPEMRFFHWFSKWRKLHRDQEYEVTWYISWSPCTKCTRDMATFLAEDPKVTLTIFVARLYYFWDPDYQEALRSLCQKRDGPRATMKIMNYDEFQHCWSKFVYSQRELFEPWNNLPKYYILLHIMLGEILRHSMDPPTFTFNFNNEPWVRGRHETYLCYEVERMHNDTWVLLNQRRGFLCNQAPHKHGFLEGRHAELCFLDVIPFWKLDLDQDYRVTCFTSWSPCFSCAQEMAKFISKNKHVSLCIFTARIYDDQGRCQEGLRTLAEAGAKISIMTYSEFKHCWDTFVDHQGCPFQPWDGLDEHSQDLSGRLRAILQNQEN

[13] = target: T5, Short transient receptor potential channel 4 (Mus musculus, UniProt Q9QUQ5); assay: mouse TRPC4 channel inhibitors, dose response, cell-based, HEK293 TRPC4/mu-opioid, Fluo-4 calcium (AID 434942); assay type: functional;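 also: potency of inhibitors blocking the TRPC4 calcium response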
T5 sequence (Q9QUQ5 whole entry): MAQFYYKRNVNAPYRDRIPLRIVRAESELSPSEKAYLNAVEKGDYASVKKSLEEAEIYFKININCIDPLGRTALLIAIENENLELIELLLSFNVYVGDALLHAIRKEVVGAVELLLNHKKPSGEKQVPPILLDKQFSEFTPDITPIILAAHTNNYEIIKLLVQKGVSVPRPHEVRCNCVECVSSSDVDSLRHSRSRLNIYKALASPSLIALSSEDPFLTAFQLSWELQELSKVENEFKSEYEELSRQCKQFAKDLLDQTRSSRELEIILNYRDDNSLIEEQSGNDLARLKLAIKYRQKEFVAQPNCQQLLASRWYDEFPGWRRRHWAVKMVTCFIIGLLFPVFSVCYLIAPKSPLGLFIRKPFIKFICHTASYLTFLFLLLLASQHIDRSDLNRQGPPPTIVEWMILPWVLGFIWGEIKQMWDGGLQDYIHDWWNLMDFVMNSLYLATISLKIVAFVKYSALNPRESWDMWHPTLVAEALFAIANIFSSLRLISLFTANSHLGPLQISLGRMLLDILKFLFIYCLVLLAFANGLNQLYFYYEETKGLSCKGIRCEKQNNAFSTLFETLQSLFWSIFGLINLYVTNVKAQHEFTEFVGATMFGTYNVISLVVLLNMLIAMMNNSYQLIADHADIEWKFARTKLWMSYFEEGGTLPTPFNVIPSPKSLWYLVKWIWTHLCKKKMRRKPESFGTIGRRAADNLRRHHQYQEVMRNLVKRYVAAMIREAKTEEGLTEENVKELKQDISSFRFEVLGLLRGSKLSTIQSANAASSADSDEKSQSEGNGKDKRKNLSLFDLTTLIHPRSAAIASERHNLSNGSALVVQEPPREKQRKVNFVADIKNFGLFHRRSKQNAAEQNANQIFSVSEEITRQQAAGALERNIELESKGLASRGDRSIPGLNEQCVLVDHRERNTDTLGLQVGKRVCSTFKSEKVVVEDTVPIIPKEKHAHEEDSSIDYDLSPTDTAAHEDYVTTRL

[14] = target: Luciferin 4-monooxygenase (Photinus pyralis, UniProt P08659); assay: firefly luciferase enzyme inhibitors, dose response, biochemical, luminescence (AID 1891)
Luciferin 4-monooxygenase, sequence (P08659 whole entry): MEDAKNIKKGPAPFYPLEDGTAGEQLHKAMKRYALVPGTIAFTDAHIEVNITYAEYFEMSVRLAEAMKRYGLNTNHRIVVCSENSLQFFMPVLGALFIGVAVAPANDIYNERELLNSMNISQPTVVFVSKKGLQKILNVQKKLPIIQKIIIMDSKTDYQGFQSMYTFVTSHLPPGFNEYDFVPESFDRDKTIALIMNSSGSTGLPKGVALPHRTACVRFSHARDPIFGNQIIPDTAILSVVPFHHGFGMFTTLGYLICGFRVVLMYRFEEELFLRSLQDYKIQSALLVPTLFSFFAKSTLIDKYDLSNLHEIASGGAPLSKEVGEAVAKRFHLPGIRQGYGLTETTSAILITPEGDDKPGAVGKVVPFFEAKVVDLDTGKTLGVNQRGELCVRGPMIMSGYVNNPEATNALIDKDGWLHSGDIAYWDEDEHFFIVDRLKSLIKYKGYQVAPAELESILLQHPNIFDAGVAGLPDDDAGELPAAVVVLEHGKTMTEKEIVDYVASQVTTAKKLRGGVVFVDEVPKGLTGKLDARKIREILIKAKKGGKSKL

[15] = Luminescence Cell-Based Dose Confirmation HTS to Identify Inhibitors of Platelet Dense Granule Release. [Related pubchem assays: 1663 (Primary HTS), 1678 (Summary of Project)]; assay type: functional
[16] = P. falciparum Dd2 growth inhibitors, dose response, SYBR Green, cherry-picked samples (AID 1159567); assay type: functional, cell-based

With `CCOC(=O)N/N=C\c1ccc([N+](=O)[O-])o1` the EC50 [1] was > 50 µM (active), the EC50 [2] was 0.542 µM (active) and the EC50 [3] was > 30 µM (not active). The AC50 (Cytochrome P450 2C19) was 25.1 µM (inconclusive).

For `COc1cccc(NC2=NC(N)=NC3(CCCCC3)N2)c1`, the EC50 [1] was > 50 µM (active).

For `Cc1noc(C)c1COC(=O)[C@@H](NC(=O)c1ccccc1)C(C)C`, the AC50 [4] was 52.5 µM (active).

In the case of `O=[N+]([O-])c1ccc2nc(S)sc2c1`, the IC50 [5] is reported as 7.04 µM (active), the EC50 [6] is reported as 27.1 µM (active) and the IC50 [7] is reported as > 20 µM (inactive).

In the case of `CC(C)c1ccc(N(C(=O)c2snc(C(N)=O)c2N)C(C(=O)NC2CCCC2)c2ccncc2)cc1` (stereo not drawn), the EC50 (cells) is reported as > 350 µM (not active).

For `COCCCN(C(=O)c1cc(-c2ccco2)nc2ccccc12)c1c(N)n(Cc2ccccc2)c(=O)[nH]c1=O`, the IC50 [8] was 12 µM (active).

With `Cc1cccc(C(=O)NCCC(=O)Nc2ccc(F)c([N+](=O)[O-])c2)c1` the EC50 [1] was > 50 µM (active), the IC50 (Fatty acid synthase [9]) was 12.3 µM (active) and the IC50 (Fatty acid synthase [10]) was 9.57 µM (active).

With `Cc1nc([N+](=O)[O-])nn1C12CC3CC(CC(Br)(C3)C1)C2` the EC50 [2] was 0.105 µM (active), the EC50 [3] was > 60 µM (not active) and the IC50 [11] was 26.3 µM (active). For the same compound, the IC50 [12] was 49.6 µM (active).

In the case of `COc1ccc2c3c1OC1C(O)C=CC4C(C2)[N+](C)(C)CCC341` (stereo not drawn), the IC50 [8] is reported as 7 µM (active).

With `Cc1cccc(N2CCN(Cc3ccoc3)CC2)c1C` the EC50 [13] was 0.668 µM (active).

In the case of `CCOc1ccccc1-n1c(SCC(=O)Nc2nccs2)nnc1-c1ccoc1C`, the EC50 [13] is reported as 1.5 µM (active).

In the case of `C/C=C/c1ccc(OCc2cc(=O)n3cc(C)ccc3n2)c(OC)c1`, the EC50 [1] is reported as > 50 µM (active), the EC50 [14] is reported as > 112 µM (not active) and the EC50 [15] is reported as 58.2 µM (active).

In the case of `COC(=O)c1cc(OC)c(OC)cc1NC(=O)c1c(-c2ccccc2Cl)noc1C`, the IC50 [5] is reported as < 0.368 µM (active), the EC50 [6] is reported as > 53 µM (inactive) and the IC50 [7] is reported as > 20 µM (inactive).

With `CN1c2ccc(C#Cc3cccnc3)cc2[C@@H]2[C@@H](CCN2S(=O)(=O)c2ccccc2F)[C@@H]1CO` the AC50 [16] was 3.87 µM (active).
